Measurements: PMC6302903, “Protein and Chemical Determinants of BL-1249 Action and Selectivity for K2P Channels” (ACS Chemical Neuroscience, 2018)

Biological target: T1, K2P5.1(TASK-2) (Mus musculus, UniProt F6V9U5)
T1 construct: expressed in transfected cells; host or cells: Xenopus laevis oocytes (mRNA injection, pGEMHE/pMO)
Assay: TEVC of K2P5.1(TASK-2) in Xenopus oocytes
Type: cell-based
Details: concentrations up to the solubility limit (∼80 μM)
Method: BL-1249 activates K2P2.1(TREK-1)[18],[40] and K2P10.1(TREK-2),[7] but its effects on other K2P channels have not been characterized. […] In order to test if the original 10 μM assay had missed BL-1249 effects in other K2P channels, we tested concentrations of BL-1249 up to the solubility limit (∼80 μM) against the other K2P subfamily representatives. […]
Xenopus laevis oocytes were harvested in accordance with UCSF IACUC protocol AN129690 and digested in calcium-free ND-96 (96 mM NaCl, 2 mM KCl, 3.8 mM MgCl2) immediately following harvest, as previously described.[6],[10] […] Defolliculated stage V–VI oocytes were injected with 0.2–6.0 ng of mRNA in 50 nL, and currents were recorded 24–48 h after injection. mRNA was synthesized from plasmid DNA using mMessage mMachine Kit (T7 promoter, Ambion, Life Technologies) and purified using RNEasy Kit (Qiagen). […] Once stabilized basal currents were recorded, compounds were perfused at various concentrations in standard ND96 and currents were allowed to increase to stabilization before recording final current. Fold activation upon compound application is expressed as I/I0 (0 mV), derived from the current at 0 mV in the presence of compound divided by the basal current at 0 mV in standard ND96 without compound. Data were analyzed and plotted using Graphpad Prism Version 5 (GraphPad Software, San Diego California USA, www.graphpad.com). […]

T1 sequence (F6V9U5 1-502): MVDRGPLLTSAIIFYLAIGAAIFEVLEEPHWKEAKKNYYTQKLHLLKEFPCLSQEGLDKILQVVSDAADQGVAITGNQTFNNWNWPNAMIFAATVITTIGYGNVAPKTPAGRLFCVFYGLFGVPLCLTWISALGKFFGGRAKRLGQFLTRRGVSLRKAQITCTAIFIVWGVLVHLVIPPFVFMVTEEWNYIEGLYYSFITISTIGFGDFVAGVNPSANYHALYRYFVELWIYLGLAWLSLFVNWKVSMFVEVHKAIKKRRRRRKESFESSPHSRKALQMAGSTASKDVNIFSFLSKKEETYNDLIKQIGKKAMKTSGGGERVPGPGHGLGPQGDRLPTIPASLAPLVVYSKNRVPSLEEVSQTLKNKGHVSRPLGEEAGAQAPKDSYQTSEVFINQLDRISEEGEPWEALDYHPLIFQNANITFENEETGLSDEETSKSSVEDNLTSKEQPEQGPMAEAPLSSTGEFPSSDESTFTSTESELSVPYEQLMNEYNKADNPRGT

SMILES: c1ccc(-c2nnn[nH]2)c(Nc2cccc3c2CCCC3)c1 [BL-1249, (5,6,7,8-tetrahydro-naphthalen-1-yl)-[2-(1H-tetrazol-5-yl)-phenyl]-amine]
- activation of K2P5.1(TASK-2): failed to find evidence for activation
